# Patent US20070082858A1, “Methods and compositions for the prevention of toxic side effects of aminoglycoside medications” (priority 2004, published 2007)
# “Also recorded” adds a separate entry of the source.
# Legend:
# MDCK cells = test: GTTR uptake into MDCK cells under TRPV1 agonists/antagonists, cation channel blockers, cations and pH (30-60 seconds, 20° C., FATX fixation, confocal imaging); settings: for hydrolyzed TR penetration into the cytoplasm (control for toxicity or increased permeability): highest doses shown: 5×10^−7 M RTX; for GTTR uptake stimulated by TRPV1 agonists/antagonists: AND, SB366791 or I-RTX
# Description: MDCK cells were used as a model system to test regulation of GTTR uptake by conditions known to produce or modify a cation current through the TRPV1 channel. Conditions tested were varying extracellular calcium concentrations, pH, specific agonists, specific antagonists, and the non-specific cation channel blocker Ruthenium Red. In addition, we pre-mixed PIP2 with GTTR to determine whether that anionic phospholipid, known to bind gentamicin, would alter GTTR uptake. All these assays were done at room temperature (20° C.), for 30 or 60 seconds, and using doses of GTTR of 5 to 10 μg/ml, which are far below the typical therapeutic level of <300 μg/ml. Buffers used for treatment were as described for each experiment. Cells were quickly washed to replace culture medium with treatment buffer, treated as indicated, washed again after treatment, fixed immediately with 4% formaldehyde and 0.5% Triton X-100 (FATX), and washed prior to imaging.
# Methods: Cells were seeded into 8-well coverglass chambers at 3000 cells/well and grown for 5 days.
# Cells were washed three times with the buffer to be used in the particular experiment, treated with GTTR and experimental variable for 30 or 60 seconds at 20° C., precluding endocytosis. Following treatment, cells were rinsed three times with buffer, then fixed and delipidated with 4% formaldehyde plus 0.5% Triton X-100 (FATX) for 45 minutes. Following fixation, cells were rinsed with PBS (Invitrogen, CA) for at least 4-6 times, or until foaming in the suction pipette ceased. In contrast to previous experiments, no FBS was present in the treatment media, allowing for more rapid uptake of the antibiotic-based GTTR.
# MDCK cells were washed with Hank's buffered salt solution (HBSS; Invitrogen, CA), then placed into buffers of varying potassium concentrations. HBSS was mixed with equi-osmolar KCl/HBSS to produce the required K^+ concentrations. Cells were treated with 1 μg/mL GTTR for 1 minute, then washed and fixed as described above.
# Cells were washed with PBS (Invitrogen, CA), then placed into buffers containing varying concentrations of calcium, obtained by mixing HBSS with equimolar CaCl2, each at pH 7.3. Cells were treated with 5 μg/mL of GTTR for 30 seconds, then washed and fixed as above.
# Cells were washed with saline, then treated with 5 μg/mL of GTTR in saline buffers of varying pH for 30 seconds, then washed and fixed as above. Sodium hydroxide and hydrochloric acid were used to alter pH. These experiments were performed in three different saline buffers: (i) PBS (no calcium), (ii) a mixture of […] for a final calcium concentration of 0.32 mM, and (iii) a mixture of three parts PBS to one part HBSS for a final calcium concentration of 0.97 mM.
# Cells were washed three times with Ca^++-free saline (0.9% NaCl), then treated with 5 μg/mL GTTR and one of the following for 30 seconds: TRPV1 agonists (resiniferatoxin [RTX]; or anandamide [AND]; Alexis Biochemicals, San Diego, Calif.); or antagonists (iodo-RTX, or SB 366791; Tocris, Ellisville, Mo.). Cells were then washed in saline and fixed as above.
# Cells were washed three times with Ca^++-free 0.9% NaCl, then treated with 5 μg/mL GTTR and one of the following for 30 seconds: 100 μM Ruthenium Red, 100 μM Ruthenium Red plus one of the TRPV1 agonists or antagonists described above; or lanthanum (La^+++) at 0.5 or 5 mM.
# [1] = tested on: bullfrog saccular hair cells; test: GTTR uptake in bullfrog saccular explants with TRPV1 regulators; type: cell-based
# Procedure: Bullfrogs (Rana catesbeiana) were anesthetized with 0.2% MS-222 and chilled before decapitation. The temporal bones were excised in cold oxygenated HEPES-buffered saline (HBS) containing 110 mM Na+; 2 mM K+; 4 mM Ca2+; 120 mM Cl−; 3 mM D-glucose, and 5 mM HEPES (pH=7.25; 220 mOsmols). Each saccule was isolated and the otolithic membrane removed by proteolytic digestion for 20 minutes in oxygenated 50 μg/ml subtilopeptidase BPN (Sigma) at room temperature. Saccular explants were then incubated in Wolf-Quimby culture medium (containing 1 mM Ca2+; Life Technologies) supplemented with 100 μg/ml ciprofloxacin in a 5% CO2 environment at 25° C. (Steyger et al. 1997; Steyger et al. 1998). Gentamicin-treated explants were incubated in the above culture media, supplemented with 300 μg/ml GT/GTTR.
# inner ear explants = test: GTTR uptake in explants of bullfrog and murine inner ears (Example 9); type: cell-based
# Description: Deafness and nephrotoxicity are serious consequences of aminoglycoside (AG) therapy. As discussed above, in cultured kidney cells, the non-endocytotic component of fluorescently-labeled gentamicin (GTTR) uptake was regulated by TRPV1 channel agonists and antagonists (pH, Ca^++, RTX). This example discusses the influence of these modulators on GTTR uptake in explants of bullfrog and murine inner ears.
# murine cochlear explants = test: GTTR uptake in murine cochlear explants with RTX; type: cell-based; settings: level of OHC nuclei
# [2] = cited from earlier work
smiles,measurement,setting,value
"CCCCC/C=C\C/C=C\C/C=C\C/C=C\CCCC(=O)NCCO [AND, anandamide]",GTTR uptake,"MDCK cells; AND 10^−4 M, calcium-free saline pH 7.3","little, or no, increase over controls; also recorded: little or no increase over controls"
same,GTTR uptake,"MDCK cells; AND 10^−5 M, calcium-free saline pH 7.3 (Example 1: greater extent than 10^−6 M)","increased, although not to the level seen with RTX"
same,GTTR uptake,"MDCK cells; AND 10^−6 M, calcium-free saline pH 7.3","increased, although not to the level seen with RTX"
"[Gd+3] [Gd^+++, Gadolinium]",GTTR uptake,"MDCK cells; 0.5, 5, or 50 mM Gd^+++ in HBSS pH 7.3, 30 seconds",serially decreased
C=C(C)[C@]12C[C@@H](C)[C@@]34O[C@](Cc5ccccc5)(O[C@@H]1[C@@H]3C=C(COC(=O)Cc1cc(I)c(O)c(OC)c1)C[C@]1(O)C(=O)C(C)=C[C@@H]41)O2 [I-RTX],GTTR uptake,"MDCK cells; 10^−5 M I-RTX with 0.16 or 2.0 mM added calcium, pH 7.0",still caused increased GTTR uptake
same,GTTR uptake,"MDCK cells; 10^−5 M I-RTX, saline without added calcium, pH 7.0, 1 μg/mL GTTR 30 seconds",increased GTTR uptake
same,GTTR fluorescence,"MDCK cells; I-RTX 10^−5 M, calcium-free saline pH 7.3",well over the upper limit of the available 0 to 255 gray scale
same,hydrolyzed TR penetration into the cytoplasm (control for toxicity or increased permeability),MDCK cells; 10^−5 M I-RTX,Neither I-RTX or RTX induced TR penetration into the cytoplasm
same,"GTTR uptake, effect compared with SB366791","MDCK cells; iodo-RTX dose series 10^−7 to 10^−5 M, calcium-free saline pH 7.3, listed as 1-RTX",dramatic; also recorded: more dramatic
same,GTTR uptake in saccular hair cells,[1]; iodo-RTX,significantly enhanced by iodo-RTX
"[Cl-].[K+] [K^+, KCl]",GTTR uptake,"MDCK cells; K^+ increased from 10 mM to 140 mM vs 5.8 mM, HBSS pH 7.3, 1 minute",clear and considerable decrease in GTTR uptake
same,GTTR uptake,inner ear explants; potassium depolarization of explants,decreased GTTR uptake
"N.N.N.N.N.N.N.N.N.N.N.N.N.N.[Cl-].[Cl-].[Cl-].[Cl-].[Cl-].[Cl-].[O-2].[O-2].[Ru+3].[Ru+3].[Ru+4] [RR, Ruthenium Red]",GTTR uptake,MDCK cells; 10 mM RR alone (Example 1),took up less GTTR than controls
same,GTTR uptake stimulated by TRPV1 agonists/antagonists,"MDCK cells; 10 mM RR plus RTX, AND effect not completely blocked (Example 1)","blocked GTTR increases stimulated by RTX, AND, SB366791, and I-RTX"
same,GTTR uptake,MDCK cells; 10^−5 M RR alone (Example 11),took up less GTTR than controls
same,GTTR uptake stimulated by TRPV1 agonists/antagonists,"MDCK cells; 10^−5 M RR plus RTX, AND effect not completely blocked (Example 11)","blocked GTTR increases stimulated by RTX, AND, SB366791, and I-RTX"
same,GTTR uptake in saccular hair cells,[1]; Ruthenium Red,significantly reduced by Ruthenium Red
same,GTTR uptake in saccular hair cells,[1]; Ruthenium Red in explants co-treated with iodo-RTX,significantly reduced by Ruthenium Red
"C=C(C)[C@]12C[C@@H](C)[C@@]34O[C@](Cc5ccccc5)(O[C@@H]1[C@@H]3C=C(COC(=O)Cc1ccc(O)c(OC)c1)C[C@]1(O)C(=O)C(C)=C[C@@H]41)O2 [RTX, resiniferatoxin]",GTTR uptake,"MDCK cells; 5×10^−9 M RTX with 0.16 or 2.0 mM added calcium, pH 7.0",reduced GTTR uptake compared to controls at the same calcium levels
same,GTTR uptake,"MDCK cells; 5×10^−9 M RTX, saline without added calcium, pH 7.0, 1 μg/mL GTTR 30 seconds",increased GTTR uptake
same,GTTR uptake,"MDCK cells; RTX 5×10^−7 M, calcium-free saline pH 7.3, 5 μg/mL GTTR 30 seconds",little or no change over control
same,GTTR uptake,"MDCK cells; RTX 5×10^−8 M, calcium-free saline pH 7.3, 5 μg/mL GTTR 30 seconds","increased, but to a lesser extent"
same,GTTR uptake,"MDCK cells; RTX 5×10^−9 M, calcium-free saline pH 7.3, 5 μg/mL GTTR 30 seconds",significantly increased
same,GTTR uptake,"MDCK cells; RTX 10^−6 M, calcium-free saline pH 7.3",little or no change over control
same,GTTR uptake,"MDCK cells; RTX 10^−7 M, calcium-free saline pH 7.3",increased to a lesser extent
same,GTTR uptake,"MDCK cells; RTX 10^−8 M, calcium-free saline pH 7.3",significantly increased
same,GTTR uptake,MDCK cells; RTX with calcium concentrations as low as 0.08 mM,inhibited GTTR uptake
same,GTTR uptake,MDCK cells; combination of 2 mM Ca^++ and 5×10^−9 RTX,greatly reduced GTTR uptake
same,hydrolyzed TR penetration into the cytoplasm (control for toxicity or increased permeability),MDCK cells; 10^−5 M I-RTX,Neither I-RTX or RTX induced TR penetration into the cytoplasm
same,GTTR uptake in saccular hair cells,[1]; RTX and Ca++ co-treatment,"reduced by co-treatment with RTX, and Ca++"
same,GTTR uptake in saccular hair cells,[1]; RTX co-administered with GTTR,significantly reduced by RTX
same,GTTR uptake in the organ of Corti,murine cochlear explants; RTX plus Ca++,reduced further by RTX plus Ca++
same,GTTR uptake in the organ of Corti,murine cochlear explants; RTX,reduced by RTX
same,GTTR uptake,inner ear explants; RTX at 0.16 mM Ca^++,enhanced GTTR uptake
same,GTTR uptake,inner ear explants; RTX at physiological Ca^++ levels,reduced GTTR uptake
COc1cccc(NC(=O)/C=C/c2ccc(Cl)cc2)c1 [SB366791],GTTR uptake,"MDCK cells; SB366791 10^−7 M to 10^−5 M, calcium-free saline pH 7.3",increased GTTR uptake significantly; also recorded: serially increased GTTR uptake
CC(C)[C@@H]1NC(=O)[C@H](C)OC(=O)[C@@H](C(C)C)NC(=O)[C@@H](C(C)C)OC(=O)[C@H](C(C)C)NC(=O)[C@H](C)OC(=O)[C@@H](C(C)C)NC(=O)[C@@H](C(C)C)OC(=O)[C@H](C(C)C)NC(=O)[C@H](C)OC(=O)[C@@H](C(C)C)NC(=O)[C@@H](C(C)C)OC1=O [Valinomycin],GTTR uptake,"MDCK cells; 10 μg/mL valinomycin in HBSS pH 7.3, 5 μg/mL GTTR 30 seconds",decreased the uptake of GTTR compared to control cells
"[Ca+2].[Cl-].[Cl-] [calcium, calcium chloride]",GTTR uptake,"MDCK cells; 0.16 mM Ca^++ vs no calcium added or 2.0 mM, pH 7.0, 1 μg/mL GTTR",higher
same,GTTR uptake,"MDCK cells; 0.16 mM calcium vs no calcium added, saline pH 7.3",increased
same,GTTR uptake,"MDCK cells; calcium concentrations above 0.16 mM, saline pH 7.3",GTTR uptake decreased
same,GTTR uptake,MDCK cells; calcium levels higher than 1.8 mM,almost completely blocking uptake
same,GTTR uptake,MDCK cells; physiological calcium levels (1.8 mM),inhibitory
same,GTTR uptake,inner ear explants; 0.16 mM Ca^++ compared to 0.0 mM Ca^++,greater GTTR uptake
[H]/N=C(/N)N[C@H]1[C@H](O)[C@@H](O)[C@H](O[C@@H]2O[C@@H](C)[C@](O)(C=O)[C@H]2O[C@@H]2O[C@@H](CO)[C@H](O)[C@@H](O)[C@@H]2NC)[C@@H](N/C(N)=N\[H])[C@@H]1O [streptomycin],incidence of vestibular impairment,[2]; 1 gram per day,25%
same,patients displaying some vestibular impairment,[2]; 2 grams daily for 60 to 120 days,~75%
